From publication PMC6259141, “Phytochemical and Cytotoxic Investigations of Alpinia mutica Rhizomes” (Molecules, 2011)
In brackets after ≈: the same amount, converted by molar mass.

What was measured:
[1] = system: A549 (lung carcinoma cell line); assay: in vitro neutral red cytotoxicity assay, A549; assay type: cell-based; settings: Homo sapiens, A549 cells, averaged from three experiments, read-out: Cytotoxic activity IC50, A549
Description: (§1) The in vitro cytotoxic activity was studied by the neutral red cytotoxicity assay [5]. KB (epidermoid carcinoma cell line), MCF7 (hormone-dependent breast carcinoma cell line), A549 (lung carcinoma cell line), CaSki (cervical carcinoma cell line), HCT116 (colon carcinoma cell line), HT29 (colon carcinoma cell line) and non-human fibroblast cell line (MRC 5) were purchased from the American Tissue Culture Collection (ATCC).

[2] = system: HT29 (colon carcinoma cell line); assay: in vitro neutral red cytotoxicity assay, HT29; assay type: cell-based; settings: Homo sapiens, HT-29, HT29 cells, averaged from three experiments, read-out: Cytotoxic activity IC50, HT29
Description: as §1

[3] = system: MCF7 (hormone-dependent breast carcinoma cell line); assay: in vitro neutral red cytotoxicity assay, MCF7; settings: Homo sapiens, MCF7, read-out: Cytotoxic activity IC50, MCF7
Description: as §1

[4] = in vitro neutral red cytotoxicity assay, MRC5; settings: human, MRC5 fibroblast cells (normal, non-cancer)
Description: as §1

[5] = system: CaSki (cervical carcinoma cell line); assay: in vitro neutral red cytotoxicity assay, CaSki; settings: Homo sapiens, Ca-Ski, read-out: Cytotoxic activity IC50, CaSki
Description: as §1

[6] = system: HCT116 (colon carcinoma cell line); assay: in vitro neutral red cytotoxicity assay, HCT116; settings: Homo sapiens, HCT-116, read-out: Cytotoxic activity IC50, HCT116
Description: as §1

[7] = system: KB (epidermoid carcinoma cell line); assay: in vitro neutral red cytotoxicity assay, KB; settings: Homo sapiens, read-out: Cytotoxic activity IC50, KB
Description: as §1

[8] = system: KB (epidermoid carcinoma cell line)
Description: as §1

[9] = system: MCF7 (hormone-dependent breast carcinoma cell line)
Description: as §1

[10] = system: CaSki (cervical carcinoma cell line)
Description: as §1

[11] = system: HCT116 (colon carcinoma cell line)
Description: as §1

[12] = system: MRC5 fibroblast cell line (non-cancer)
Description: as §1

Compound | IC50 [1] [mg/L] | IC50 [2] [mg/L] | IC50 [3] [mg/L] | IC50 [4] [mg/L] | IC50 [5] [mg/L] | IC50 [6] [mg/L] | IC50 [7] [mg/L] | Cytotoxic activity IC50, KB [8] [mg/L] | Cytotoxic activity IC50, MCF7 [9] [mg/L] | Cytotoxic activity IC50, CaSki [10] [mg/L] | Cytotoxic activity IC50, HCT116 [11] [mg/L] | Cytotoxic activity IC50, MRC5 [12] [mg/L]
COc1cccc2c1C(=O)c1c(O)c3c(c(O)c1C2=O)C[C@@](O)(C(=O)CO)C[C@@H]3O[C@H]1C[C@H](N)[C@H](O)[C@H](C)O1 [Doxorubicin, reference compound] | 0.58 ± 0.01 (≈ 1.07 µM) | 0.33 ± 0.03 (≈ 0.607 µM) | 0.05 ± 0.01 (≈ 0.092 µM) | 0.4 ± 0.03 (≈ 0.736 µM) | 0.18 ± 0.06 (≈ 0.331 µM) | 0.24 ± 0.04 (≈ 0.442 µM) |  |  |  |  |  | 
COc1cc(O)c(C(=O)/C=C/c2ccccc2)c(OC)c1 [Flavokawin B (1), flavokawin B] |  |  | 49.3 ± 1.8 (≈ 173 µM) | 17.2 ± 0.5 (≈ 60.5 µM) | 31.1 ± 1.3 (≈ 109 µM) | 6.4 ± 0.2 (≈ 22.5 µM) | 5.7 ± 0.4 (≈ 20 µM) |  |  |  |  | 
COc1cc(O)c(C(=O)/C=C/c2ccccc2)c(O)c1 [Pinostrobin chalcone (3), pinostrobin chalcone] |  |  | 7.3 ± 0.6 (≈ 27 µM) | 7.9 ± 0.8 (≈ 29.2 µM) | 7.7 ± 0.2 (≈ 28.5 µM) | 54.1 ± 4.6 (≈ 200 µM) | 6.2 ± 0.2 (≈ 22.9 µM) |  |  |  |  | 
alpinetin [Alpinetin (4)] |  |  |  |  |  |  |  | >100 | > 100 | >100 | 39.6 ± 2.0 | > 100
